Data as given in patent US7598028B2, “Compositions and methods for detecting and treating prostate disorders” (The Regents of the University of Michigan, priority 2006, dated 2009).
“Also recorded” adds a separate entry of the source.

Key:
Format in all cases: cell-based, human
[1] = test system: 22Rv1 prostate epithelial cells; assay: Proliferation assay, 22Rv1; details: 0.001-1 nM CXCL5, p<0.05
Procedure: (§1) Proliferation Assays. Cellular proliferation was assessed after plating cells at 50,000 cell/well in triplicate in six well plates and counting cells after 24 and 96 hours of incubation as described previously (see, e.g., Begley L, et al., Genes Chromosomes Cancer. 2006 February; 45(2): 136-46; herein incorporated by reference in its entirety). To assess the effects of exogenous CXCL5 on cellular proliferation, recombinant human CXCL5 (R&D Systems, 254-X) was added at the desired concentration in 2 ml SF media (or 2 ml SF media alone for control) to each well. The cells were re-fed at 24 hours growth and counted at 24 and 96 hours growth. Cell counts were normalized to 50,000 cells at 24 hours to account for any plating discrepancies. Averages and standard deviations of cell number were calculated for each time point under each media condition. For the antibody blockade experiments, 10,000 cells per well were plated in triplicate in 24 well dishes and preincubated with mouse anti-human CXCR2 (Biosource AHR1532X) or mouse antihuman CXCR4 (BD Pharmingen 555971) at 1 ug/ml for 1 hour prior to CXCL5 addition. Cells were maintained in media containing appropriate antibodies for the entirety of the experiment and were counted at 24 and 96 hours as above.

[2] = test system: BPH-1 prostate epithelial cells; assay: Proliferation assay, BPH-1; details: 0.001-1 nM CXCL5, p<0.05
Procedure: as §1

[3] = test system: N1 prostate fibroblast cells; assay: Proliferation assay, add back, N1 fibroblasts; details: add back of exogenous chemokine, 96 hours
Description: FIG. 6C describes how CXCL1, CXCL5, CXCL6, and CXCL12 stimulate N15C6 prostate epithelial cell proliferation, N1 prostate fibroblast cell proliferation, and LNCaP prostate epithelial cell proliferation compared to serum-free (SF HIE) media alone. “Add back” assays were next performed to determine whether the addition of exogenous CXCL1, CXCL5, CXCL6, and CXCL12 to defined, serum-free media induced […] or LNCaP prostate epithelial or N1 fibroblast cell proliferation. For these and all experiments utilizing N15C6 and LNCaP cells, the N15C6 and N1 cells were used between passage 35-45, and LNCaP cells between passages 25-35, for consistency. All recombinant CXC proteins were obtained from R&D systems (e.g., CXCL1, #275-GR, CXCL5, #254-X; CXCL6, #333-GC, and SDF1 alpha/CXCL12, #350-NS). Cells were plated at 50,000 cells/well in triplicate, treated for 96 hours, and counted. […] Moreover, the concentrations for CXCL1, CXCL5, CXCL6 and CXCL12 observed to be growth-stimulatory for prostate epithelial cells were similar to those secreted into the media by older prostate stromal fibroblasts (see, e.g., FIGS. 6A and 6B).

[4] = test system: PC3 prostate epithelial cells; assay: Proliferation assay, PC3; details: 0.001-1 nM CXCL5, p<0.05
Procedure: as §1

STAT3 = assay: Western blot, STAT3 phosphorylation in LNCaP cells; details: sub-nanomolar or nanomolar levels of CXCL5
Procedure: Western Blot and Protein Analysis. Cells were lysed, proteins resolved by electrophoresis, and electroblotting was carried out as described previously except that 20 ug protein was electrophoresed per gel lane for N15C6 cells and 100 ug protein for LNCaP cells (see, e.g., Begley L, et al., Aging Cell. 2005 December; 4(6):291-8; Begley L A, et al., J Biol. Chem. 2007 Sep. 14; 282(37):26767-74; each herein incorporated by reference in their entireties). Proteins were detected using antibodies against phospho-ERK½ (Cell Signaling #9101), total ERK½ (Cell Signaling, #9102), phospho-p65, (Rockland #100-401-264), total p65 (Rockland #100-4165), STAT3 (9139), phospho-STAT3 (9138), beta-actin (Santa Cruz #sc-1615), or tubulin (Upstate, #DM1A) in conjunction with an ECL detection system. Secondary antibodies included goat anti-rabbit (Cell Signaling, #7074) and goat anti-mouse (Santa Cruz, #SC-2005), and both were used at a 1:5000 concentration. Immunoblots shown are representative of triplicate experiments. Densitometric quantitation of immunoblot films was accomplished by scanning the original films and converting the .tiff files to grayscale. Images were inverted, and mean band intensities were measured using ImageJ (www, followed by, .nih.gov). The mean intensity of adjacent background was also measured for each band and subtracted from band intensity.

[5] = test system: PC3 prostate cancer cells; assay: Matrigel invasion assay, PC3; details: 20 nM chemokine
Procedure: Invasion Assays. Ability to invade through synthetic basement membrane was measured by plating 15,000 cells/well onto control or Matrigel-coated membranes in duplicate using 24-well BD Matrigel Invasion Chambers (Becton-Dickinson). Cells were plated in complete media and left untreated or pre-treated with 1 ug/ml anti-CXCR2 (Biosource AHR1532X) or anti-CXCR4 (BD Pharmingen 555971) for 2 hours, then exposed to complete media only or 20 nM CXCL5 as a chemo-attractant added to the companion plate. After 24 hours of incubation, the upper surface of the membranes were ‘scrubbed’ to remove non-invasive cells, and the cells that had invaded through to the lower surface of the Matrigel-coated membranes or to the bottom of the companion plate were fixed, stained, and counted. The number of invaded cells was calculated as the average number of cells present on the lower surface of the Matrigel-coated membrane and the companion plate counted over four low power (10× objective) microscopic fields per membrane over both wells per experimental condition. […]

Substance: CXCL5: recombinant human CXCL5 (R&D Systems, 254-X), CXC-type chemokine
- proliferation versus SF media alone [1]: significantly higher
- proliferation versus SF media alone [2]: significantly higher
- cell proliferation compared to serum-free (SF HIE) media alone [3]: stimulate
- proliferation versus SF media alone [4]: significantly higher
- activation of STAT3 (STAT3): not observed
- invasion through Matrigel versus control media / vehicle [5]: invaded; also recorded: significantly more
